This is an account of results in PMC9594047, “Identification of the Allosteric Binding Site for Thiazolopyrimidine on the C-Type Lectin Langerin” (ACS Chemical Biology, 2022).

Positions count from the first letter of the chain named. Where a SMILES comes first, the peptide text is derived from it.

Experiment [1] concerns the target T1, murine Langerin (mLang) CRD wild type (Mus musculus, UniProt Q8VBX4).
T1 construct: 194 - 331, were cloned from a codon-optimized Langerin gene; His-tag (N); made in house; host or cells: E. coli BL21
T1 sequence (Q8VBX4 194-331): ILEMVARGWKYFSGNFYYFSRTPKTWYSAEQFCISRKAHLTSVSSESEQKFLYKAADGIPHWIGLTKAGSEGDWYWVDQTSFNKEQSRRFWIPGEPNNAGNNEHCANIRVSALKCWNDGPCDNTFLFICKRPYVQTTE
Nature of the experiment: 1H-15N HSQC NMR titration, mLang CRD wild type. Type of experiment: binding. The note with it: from CSP trajectories, 298 K; for Kd: pH 6, read-out: 15N HSQC KD mLang (Murine-WT); for 15N HSQC KD mLang (Murine-WT): pH 6. As to the method:
(§1) Protein expression and purification hLang and mLang CRD wild type and all the mutants, ranging from amino acids 193 - 328 and 194 - 331, were cloned from a codon-optimized Langerin gene for bacterial expression (GenScript, Piscataway, NJ, USA) into a pET-28a vector (GenScript, Piscataway, NJ, USA) carrying an N-terminal His-tag and a T7 promoter. All constructs were expressed in E. coli BL21 (ThermoFisher Scientific, Waltham, MA, USA) in LB medium or in M9 medium at 37 °C. Protein expression was induced by adding 1 mM IPTG (isopropyl β-D-1-thiogalactopyranoside) at an OD600 between 0.7 - 1 and were grown overnight at 37 °C. Bacteria were harvested by centrifugation at 4000 g for 30 mins. Cells were lysed in lysis buffer (50 mM Tris, 150 mM NaCl, 10 mM MgCl2, 0.1% Tween-20, pH 8) with 1 mg/mL lysozyme (Sigma Aldrich, St. Louis, MO, USA) and 100 μg/mL DNase I (Applichem, Darmstadt, Germany) for at least 3 h at room temperature or 4 °C overnight or sonicated 1 h with amplitude 55%. Inclusion bodies were harvested by centrifugation at 15000 g […]
(§2) Inclusion bodies were washed twice with lysis buffer and ultrapure water to remove cell debris and soluble proteins. Then inclusion bodies were denatured with 20 mL of denaturation buffer (6 M guanidinium hydrochloride in 100 mM Tris (pH 8)) with 0.01% β -mercaptoethanol for at least 1 h at 37 °C, shaking at 220 rpm. The supernatant was slowly diluted 1:10 with CTL refolding buffer (0.4 M L-arginine in 50 mM Tris, 20 mM NaCl, 0.8 mM KCl, pH 8.3) with 1 mM reduced glutathione (GSH) and 0.1 mM oxidized glutathion e (GSSG) while stirring at 4 °C for at least 48 h after centrifugation (15,000 x g, 90 min, 4 °C). The refolded protein solution was dialyzed against 5 L TBS buffer (50 mM Tris, 150 mM NaCl, 5 mM CaCl 2) and then centrifuged to remove precipitated protein (15,000 x g, 90 min, 4 °C). The supernatant was purified by Ni -NTA agarose […]
(§3) affinity chromatography (Thermo Fisher) and the fractions of the elution were pooled and dialyzed against MES buffer (25 mM MES, 40 mM NaCl, 5 mM CaCl2, pH 6). Precipitated protein was removed by centrifugation (15,000 x g, 90 min, 4 °C) and the supernatant was used for experiments. We then concentrated protein with 5 - 6 mg/mL as the final concentration.
(§4) 1H-15N HSQC NMR measurements and backbone resonance assignment
(§5) NMR assignment and 15N-HSQC NMR for CSP plot and KD calculations were performed on a 700 MHz Bruker Advance III spectrometer (Bruker, Billerica, MA, USA) equipped with a PRODIGY probe. For mLang CRD backbone assignment, we performed a series of standard triple resonance experiments HNCA, HNCACB, HN(CO)CA and HN(CO)CACB as Hanske et al. described.1 Data was analyzed by using CcpNmr 2.5.1.2 In total, 88% of the residues were unambiguously assigned.
(§6) Most of the unassigned residues are prolines or residues in the mobile loops near the CBS, as reported for similar protein for example human Langerin.1 For the sample preparation, we used 300 µM 15N and 13C labeled protein, which is in 25 mM MES, 40 mM NaCl, 5 mM CaCl2, pH 6 containing 100 μM DSS, 0.05% NaN3, and 10% D2O buffer. 1H–15N HSQC NMR titrations experiments were performed with 100 μM of Langerin CRD containing 50 μM 4,4-dimethyl-4-silapentane-1-sulfonic acid (DSS) as an internal reference, and 10% D2O. 128 increments and 4 - 16 transients were recorded at 298 K, depending on the protein concentration and the machine implemented. NMR titration data were processed and analyzed, as previously done in Hanske et al. described (2016).1 The protein sample was added stepwise for titration of the thiazolopyrimidine derivatives or peptides until the most solubility tolerance was reached as the final concentration. Step size according to expected KD varied.

The target in experiment [2] is T2, human Langerin (hLang) CRD wild type (Homo sapiens, UniProt Q9UJ71).
T2 construct: ranging from amino acids 193 - 328 and; His-tag (N); made in house; host or cells: E. coli BL21
T2 sequence (Q9UJ71 193-328): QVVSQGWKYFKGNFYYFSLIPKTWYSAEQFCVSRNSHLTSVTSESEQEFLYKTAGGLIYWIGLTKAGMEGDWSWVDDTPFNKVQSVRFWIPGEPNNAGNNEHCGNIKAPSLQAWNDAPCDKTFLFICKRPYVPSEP
The experiment in a line: 1H-15N HSQC NMR titration, hLang CRD wild type. The experiment is classed as binding. To be noted: for Kd / 15N HSQC KD hLang (Human-WT): hLang CRD wild type, from CSP trajectories, 298 K, pH 6; for Kd: read-out: 15N HSQC KD hLang (Human-WT). As to the method: as §1, §2, §3, §4, §5, §6

The target in a further experiment is T3, mLang S263M-Y268S (Mus musculus, UniProt Q8VBX4, S263M/Y268S).
T3 construct: 194 - 331, were cloned from a codon-optimized Langerin gene; His-tag (N); made in house; host or cells: E. coli BL21
T3 sequence (Q8VBX4 194-331 S263M/Y268S): T1 sequence (Q8VBX4 194-331) with S70M, Y75S
Nature of the experiment: 1H-15N HSQC NMR titration, mLang CRD double mutant. Type of experiment: binding, murine. The note with it: for Kd: mLang CRD S263M-Y268S mutant, read-out: 15N HSQC KD Murine-S263M-Y268S. As to the method: as §1
Inclusion bodies were washed twice with lysis buffer and ultrapure water to remove cell debris and soluble proteins. Then inclusion bodies were denatured with 20 mL of denaturation buffer (6 M guanidinium hydrochloride in 100 mM Tris (pH 8)) with 0.01% β -mercaptoethanol for at least 1 h at 37 °C, shaking at 220 rpm. […]
as §5
as §6, with “1H–15N HSQC NMR titrations experiments were performed with 100 μM of Langerin CRD containing 50 μM 4,4-dimethyl-4-silapentane-1-sulfonic acid (DSS) as an internal reference, and 10% D2O.” left out, “Step size according to expected KD varied.” left out

In a further experiment the target is T4, hLang M260S-S265Y (Homo sapiens, UniProt Q9UJ71, M260S/S265Y).
T4 construct: ranging from amino acids 193 - 328 and; His-tag (N); made in house; host or cells: E. coli BL21
T4 sequence (Q9UJ71 193-328 M260S/S265Y): as the sequence (Q9UJ71 193-328) above, with M68S, S73Y counted along it
The experiment in a line: 1H-15N HSQC NMR titration, hLang CRD double mutant. The experiment is classed as binding. To be noted: for Kd: hLang CRD M260S-S265Y mutant. As to the method: as §1
Inclusion bodies were washed twice with lysis buffer and ultrapure water to remove cell debris and soluble proteins. […]
as §5
Most of the unassigned residues are prolines or residues in the mobile loops near the CBS, as reported for similar protein for example human Langerin.1 For the sample preparation, we used 300 µM 15N and 13C labeled protein, which is in 25 mM MES, 40 mM NaCl, 5 mM CaCl2, pH 6 containing 100 μM DSS, 0.05% NaN3, and 10% D2O buffer. […] 128 increments and 4 - 16 transients were recorded at 298 K, depending on the protein concentration and the machine implemented. […]

For orientation: Kd means the equilibrium constant for the complex coming apart. In the case of `C[C@H](N)C(=O)N[C@@H](Cc1c[nH]c2ccccc12)C(=O)N[C@@H](CO)C(=O)O` [AWS] (H-Ala-Trp-Ser-OH), the Kd in experiment [1] is 1600 ± 300 µM; in experiment [2] it was 2400 ± 940 µM.

Consider `O=C(O)c1cnc2sccn2c1=O` [Compound 1], for which the Kd in experiment [1] stood at 1800 ± 600 µM; at mLang S263M-Y268S it was 480 ± 340 µM; on hLang M260S-S265Y it was 340 ± 220 µM; in experiment [2] it was 130 ± 40 µM. In addition, at mLang S263M-Y268S (mutant vs WT), the “fold increase in affinity for mLang S263M-Y268S compared to WT” value stood at 3 fold. For the same compound, at hLang M260S-S265Y (mutant vs WT), the “fold decrease in affinity to hLang M260S-S265Y compared to WT” value is listed as 3 fold. Also, in experiment [2] (hLang vs mLang wild type), the “fold higher affinity for hLang compared to mLang” value is reported as “more than 10 fold”.

As to `COc1ccccc1CNC(=O)c1cnc2sccn2c1=O` [Compound 2], the “15N HSQC KD mLang (Murine-WT)” value in experiment [1] is listed as “micromolar affinity”. For the same compound, the Kd in experiment [1] came to 160 ± 60 µM; at mLang S263M-Y268S, 1740 ± 160 µM; at hLang M260S-S265Y, 450 ± 280 µM. In addition, on mLang S263M-Y268S (mutant vs WT), the “fold decrease in binding affinity to mLang S263M-Y268S compared to WT” value worked out at 10 fold. The “15N HSQC KD hLang (Human-WT)” value in experiment [2] is “not detectable and no detectable binding and nb”.

As to `O=C(NCCc1cn2c(n1)SCC2)c1cnc2sccn2c1=O` [Compound 3], the results for the dissociation constant Kd in experiment [1] and in experiment [2] were 1140 ± 60 µM and 110 ± 40 µM, respectively.

Turning to `Cc1sc2ncc(C(=O)O)c(=O)n2c1C` [Compound 4], the Kd in experiment [1] turned out to be 400 ± 140 µM; in experiment [2], 900 ± 300 µM.

`Cc1csc2ncc(C(=O)O)c(=O)n12` [Compound 5]: in experiment [1], the “15N HSQC KD mLang (Murine-WT)” value is listed as “micromolar affinity” and the Kd is 610 ± 110 µM. In addition, in experiment [2], the “15N HSQC KD hLang (Human-WT)” value is “no detectable binding and nb”.

As for `COc1cc2c(cc1OC)CC(NC(=O)c1cnc3sccn3c1=O)C2` [Compound 6], in experiment [1], the “15N HSQC KD mLang (Murine-WT)” value is given as “micromolar affinity” and the dissociation constant Kd turned out to be 230 ± 60 µM. The “15N HSQC KD hLang (Human-WT)” value in experiment [2] was “no detectable binding and nb”.

Take `O=C(NCc1ccc2c(c1)OCO2)c1c(O)nc2sccn2c1=O` [Compound 7]: in experiment [1], the “15N HSQC KD mLang (Murine-WT)” value is recorded as “micromolar affinity” and the dissociation constant (Kd) turned out to be 280 ± 160 µM. Further, the “15N HSQC KD hLang (Human-WT)” value in experiment [2] was “no detectable binding and nb”.

For the compound `C[C@H](NC(=O)[C@@H](N)CO)C(=O)N[C@@H](Cc1c[nH]c2ccccc12)C(=O)N[C@@H](CO)C(=O)O` [SAWS] (H-SAWS-OH), in experiment [1], the “15N HSQC KD mLang (Murine-WT)” value was “high-micromolar affinity” and the Kd was 670 ± 230 µM. In experiment [2], the “15N HSQC KD hLang (Human-WT)” value is “high-micromolar affinity” and the Kd turned out to be 820 ± 130 µM.

On to `N[C@@H](CO)C(=O)N[C@@H](CO)C(=O)N[C@@H](Cc1c[nH]c2ccccc12)C(=O)N[C@@H](CO)C(=O)O` [SSWS] (H-SSWS-OH), for which, in experiment [1], the dissociation constant Kd was found to be 460 ± 30 µM.
